Columns and labels:
[1] = tested on: urokinase; experiment: Comparison Experiment 1: conversion of chromogenic plasmin substrate / activity of urokinase in plasma with lysine and/or ammonium peroxodisulfate; type: biochemical
Description: 50μl of a plasma which is deficient in alpha2 -antiplasmin and has been prepared by immunoadsorption, as well as 1:2, 1:4 and 1:8 mixtures of this deficient plasma with normal plasma, where mixed with 200 μl or solution C (plasminogen activator reagent).
[…] of a 3 mM solution of H-D-Phe-Tyr-Arg-ANBA . 2 HCl in solution A and 500 µl of a plasminogen solution (2 CTA-U/ml) in solution A were added to the samples, the mixtures were incubated at 37° C. for 20 min, subsequently 100 μL of 8.5 M acetic acid were used to stop, and the extinction at 405 nm was determined. […] It is evident that addition of lysine increases the activity of urokinase by more than 100%.

[2] = tested on: plasmin; experiment: Comparison Experiments 5, 6, 8: optimization of reagent concentration in functional PAI (PA) determination (generated plasmin activity); type: biochemical
Description: (§1) Preincubation of 50 μl of sample with 200 μl of a variant of solution C (plasminogen activator dissolved in basic buffer U) at 37° C. for five minutes was followed by addition of 200 μl of a variant of plasminogen reagent (F), composed of 100 mM Tris-HCl pH 8.4, crosslinked polypeptides 1%, ^R Triton×100 0.1%, 100 mM NaCl without tran-examic acid, NaN3 0.01 % (basic buffer U) with 10 CTA-U/ml plasminogen and 200 μl of distilled water with 10 mM chloramine T, 3 mM tranexamic acid to the reaction mixture. The mixture was incubated at 37° C. for 5 min, and 500 μl of 0.6 mM chromogenic plasmin substrate HD-Nva-CHA-Lys-pNA in 480 mM NaCl (or, as a substitute, 200 mM CsCl) were added. The resultant linear change in extinction, delta A/min, at 405 nm was followed.

[3] = biological target: T1, plasmin and alpha2-antiplasmin (Homo sapiens, UniProt P00747); experiment: Slowing of the reaction between plasmin and alpha2-antiplasmin by omega-amino carboxylic acids; type: biochemical; conditions: lysine 10 to 3,000 mM, epsilon-aminocaproic acid 2 to 500 mM, tranexamic acid 0.1 to 50 mM
T1 construct: native proteins
T1 sequence (P00747 97-810): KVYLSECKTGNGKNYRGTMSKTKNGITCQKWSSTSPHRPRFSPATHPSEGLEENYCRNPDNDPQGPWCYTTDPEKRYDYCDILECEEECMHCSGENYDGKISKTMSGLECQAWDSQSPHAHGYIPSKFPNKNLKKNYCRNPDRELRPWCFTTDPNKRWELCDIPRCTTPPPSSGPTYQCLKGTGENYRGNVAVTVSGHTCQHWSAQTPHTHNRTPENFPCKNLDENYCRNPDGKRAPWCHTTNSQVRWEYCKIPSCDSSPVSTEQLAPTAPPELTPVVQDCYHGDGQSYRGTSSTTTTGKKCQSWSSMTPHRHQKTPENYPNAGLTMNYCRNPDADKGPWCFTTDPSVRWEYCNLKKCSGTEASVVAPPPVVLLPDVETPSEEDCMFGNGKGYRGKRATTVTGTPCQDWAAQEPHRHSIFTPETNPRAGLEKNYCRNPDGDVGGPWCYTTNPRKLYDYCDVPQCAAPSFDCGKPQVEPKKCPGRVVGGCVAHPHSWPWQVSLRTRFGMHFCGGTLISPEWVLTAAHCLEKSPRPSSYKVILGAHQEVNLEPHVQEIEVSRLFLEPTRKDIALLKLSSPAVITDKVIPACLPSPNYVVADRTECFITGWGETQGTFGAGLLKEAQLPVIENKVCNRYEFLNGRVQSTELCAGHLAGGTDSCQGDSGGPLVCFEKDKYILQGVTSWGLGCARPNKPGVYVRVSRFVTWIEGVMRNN
T1 sequence (P08697 40-491 partner): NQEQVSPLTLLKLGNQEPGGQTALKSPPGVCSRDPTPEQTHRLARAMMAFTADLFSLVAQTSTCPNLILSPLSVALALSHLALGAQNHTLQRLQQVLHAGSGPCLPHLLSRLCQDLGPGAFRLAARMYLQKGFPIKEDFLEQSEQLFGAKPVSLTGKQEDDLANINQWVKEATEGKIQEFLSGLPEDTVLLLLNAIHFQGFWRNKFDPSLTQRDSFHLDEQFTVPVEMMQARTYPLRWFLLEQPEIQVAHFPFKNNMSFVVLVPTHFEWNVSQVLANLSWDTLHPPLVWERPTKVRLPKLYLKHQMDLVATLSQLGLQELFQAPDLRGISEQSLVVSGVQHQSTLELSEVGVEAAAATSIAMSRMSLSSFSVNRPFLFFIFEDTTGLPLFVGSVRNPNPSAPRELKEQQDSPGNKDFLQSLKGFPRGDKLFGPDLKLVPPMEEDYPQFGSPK

[4] = tested on: antithrombin III (AT III); experiment: Comparison Experiment 13: oxidative inactivation of antithrombin III; type: biochemical; conditions: 37° C., 15 min preincubation, pH 8.8
Description: 50 pmol of AT III in 50 μl of 50 mM Tris, 100 mM NaCl, 0.1% (w/v) Triton×100, pH 8.8 buffer, are preincubated with increasing quantities of chloramine T or hydrogen peroxide in 50 μl of distilled water at 37° C. for 15 min. Then 3 pmol of human alpha-thrombin, 2.5 IU of heparin and 2 KIU of aprotinin in 500 μl of 100 mM Tris, 150 mM NaCl, pH 8.2, are added, and the mixture is incubated at 37° C. for 5 min. Addition of 500 μl of 0.4 mM H-D-CHA-But-ArgpNA was followed by further incubation for 3 min (37° C.). The reaction was stopped by 100 μl of 8.5 M acetic acid, and the change in extinction at 405 nm was determined.

[5] = tested on: human alpha-thrombin; experiment: Comparison Experiment 13: oxidation resistance of thrombin; type: biochemical; conditions: 500 nmol of chloramine T or 500 times the dose of H202
[6] = tested on: plasminogen activator inhibitors; conditions: Lawrence and Loskutoff, Biochemistry 25, 6351-6355, 1986; cited from earlier work
[7] = tested on: plasmin; experiment: Comparison Experiment 11: effect of chloramine T and/or tranexamic acid on plasmin activity in the functional PAI assay; type: biochemical; conditions: for delta A/4 min: 405 nm
Description: as §1

[8] = tested on: PAI1; experiment: Example 5a: determination of PAI2 via preincubation with polycation-containing PA reagent; type: biochemical; conditions: protamine chloride 100 U/ml or polylysine 500 μg/ml
[9] = tested on: urokinase; experiment: Example 4: oxidation sensitivity of PAI1 and PAI2 (oxidation before addition of plasminogen activator reagent); type: biochemical; conditions: oxidation with chloramine T before addition of plasminogen activator reagent
Description: 50 μl of sample were incubated with 500 μl of solution A (basic buffer) and 50 μl of solution B (oxidizing reagent) at 37° C. for 10 min. Addition of 200 μl of solution C (plasminogen activator reagent) was followed by incubation at 37° C. for 5 min. The substrate conversion was started by addition of 200 μl of solution E (plasmin substrate reagent) and 100 μl of solution F (plasminogen reagent) and the mixture was incubated at 37° C. for 15 min. After addition of 100 μl of 8.5 M acetic acid, the extinction at 405 nm was determined.

N.N.O=S(=O)(O)OOS(=O)(=O)O [ammonium peroxodisulfate]
dependence of the conversion of the chromogenic plasmin substrate on the quantity of alpha2-antiplasmin in the plasma ([1]; 5% (NH4)2S2O8 in distilled water): does not depend on the quantity of alpha2 -antiplasmin

O=S(=O)(NCl)c1ccccc1 [chloramine B]
results with chloramine B in place of chloramine T ([2]; Comparison Experiment 5b): the same as represented for chloramine T

NCCCCCC(=O)O [epsilon-aminocaproic acid]
factor by which the reaction between plasmin and alpha2-antiplasmin is slowed down [3]: at least 10

OO [hydrogen peroxide]
dose of hydrogen peroxide inactivating 50 pmol of AT III, as a multiple [4]: 500 times the dose | activity of thrombin at the dose inactivating AT III [5]: without the activity of thrombin being impaired | concentration inactivating plasminogen activator inhibitors [6]: about 10 mM

NCCCC[C@H](N)C(=O)O [lysine]
increase of the activity of urokinase ([1]; addition of lysine (10% lysine in distilled water)): more than 100% | increase in the extinction compared with the sample without omega-amino carboxylic acid ([1]; without use of an oxidizing agent): more than 100% | factor by which the reaction between plasmin and alpha2-antiplasmin is slowed down [3]: at least 10

NC[C@H]1CC[C@H](C(=O)O)CC1 [tranexamic acid]
factor by which the reaction between plasmin and alpha2-antiplasmin is slowed down [3]: at least 10 | tranexamic acid concentration at maximum ([2]; in the reaction mixture, basic buffer and PAI-deficient plasma): 1 to 4 mM | increase in plasmin activity with alpha2-antiplasmin-deficient plasma compared with normal plasma [7]: about 70% | delta A/4 min ([7]; Normal plasma without alpha2-antiplasmin): 829 mA | delta A/4 min ([7]; Normal plasma): 488 mA

polylysine
PAI measured in presence of polycation in the plasminogen activator reagent [8]: only PAI2 (and not PAI1) was measured

protamine chloride
PAI measured in presence of polycation in the plasminogen activator reagent [8]: only PAI2 (and not PAI1) was measured

B1: PAI2: placental inhibitors: these include the inhibitors released from the placenta and leukocytes (protein, UniProt P05120 1-415, looked up)
Plasminogen activator …: MEDLCVANTLFALNLFKHLAKASPTQNLFLSPWSISSTMAMVYMGSRGSTEDQMAKVLQFNEVGANAVTPMTPENFTSCGFMQQIQKGSYPDAILQAQAADKIHSSFRSLSSAINASTGNYLLESVNKLFGEKSASFREEYIRLCQKYYSSEPQAVDFLECAEEARKKINSWVKTQTKGKIPNLLPEGSVDGDTRMVLVNAVYFKGKWKTPFEKKLNGLYPFRVNSAQRTPVQMMYLREKLNIGYIEDLKAQILELPYAGDVSMFLLLPDEIADVSTGLELLESEITYDKLNKWTSKDKMAEDEVEVYIPQFKLEEHYELRSILRSMGMEDAFNKGRANFSGMSERNDLFLSEVFHQAMVDVNEEGTEAAAGTGGVMTGRTGHGGPQFVADHPFLFLIMHKITNCILFFGRFSSP
sensitivity to oxidation [9]: less sensitive to oxidation

Source: patent publication US5057414A, “Method for the determination of the activity of serine proteases or serine protease inhibitors” (Behringwerke Aktiengesellschaft, priority 1987, dated 1991)
